Laboratory results published in ChEMBL document CHEMBL4823315 (Bioorg Med Chem Lett, 2021).
Blank lines part the entries; values can stand above or below the compound they belong to.

Assays:
[1] = Inhibition of p70S6K (unknown origin); set-up: species or system Homo sapiens
[2] = Inhibition of Akt/p70S6K in human MDA-MB-436 cells assessed as inhibition of S6 phosphorylation; type: cell-based
[3] = biological target: Serine/threonine-protein kinase AKT (Homo sapiens, UniProt P31751+Q9Y243+P31749); assay: Inhibition of Akt (unknown origin); type: protein assay
[4] = biological target: Voltage-gated inwardly rectifying potassium channel KCNH2 (Homo sapiens, UniProt Q12809); assay: Inhibition of human ERG by patch clamp assay
Chain of Voltage-gated inwardly rectifying potassium channel KCNH2 (Q12809 whole entry): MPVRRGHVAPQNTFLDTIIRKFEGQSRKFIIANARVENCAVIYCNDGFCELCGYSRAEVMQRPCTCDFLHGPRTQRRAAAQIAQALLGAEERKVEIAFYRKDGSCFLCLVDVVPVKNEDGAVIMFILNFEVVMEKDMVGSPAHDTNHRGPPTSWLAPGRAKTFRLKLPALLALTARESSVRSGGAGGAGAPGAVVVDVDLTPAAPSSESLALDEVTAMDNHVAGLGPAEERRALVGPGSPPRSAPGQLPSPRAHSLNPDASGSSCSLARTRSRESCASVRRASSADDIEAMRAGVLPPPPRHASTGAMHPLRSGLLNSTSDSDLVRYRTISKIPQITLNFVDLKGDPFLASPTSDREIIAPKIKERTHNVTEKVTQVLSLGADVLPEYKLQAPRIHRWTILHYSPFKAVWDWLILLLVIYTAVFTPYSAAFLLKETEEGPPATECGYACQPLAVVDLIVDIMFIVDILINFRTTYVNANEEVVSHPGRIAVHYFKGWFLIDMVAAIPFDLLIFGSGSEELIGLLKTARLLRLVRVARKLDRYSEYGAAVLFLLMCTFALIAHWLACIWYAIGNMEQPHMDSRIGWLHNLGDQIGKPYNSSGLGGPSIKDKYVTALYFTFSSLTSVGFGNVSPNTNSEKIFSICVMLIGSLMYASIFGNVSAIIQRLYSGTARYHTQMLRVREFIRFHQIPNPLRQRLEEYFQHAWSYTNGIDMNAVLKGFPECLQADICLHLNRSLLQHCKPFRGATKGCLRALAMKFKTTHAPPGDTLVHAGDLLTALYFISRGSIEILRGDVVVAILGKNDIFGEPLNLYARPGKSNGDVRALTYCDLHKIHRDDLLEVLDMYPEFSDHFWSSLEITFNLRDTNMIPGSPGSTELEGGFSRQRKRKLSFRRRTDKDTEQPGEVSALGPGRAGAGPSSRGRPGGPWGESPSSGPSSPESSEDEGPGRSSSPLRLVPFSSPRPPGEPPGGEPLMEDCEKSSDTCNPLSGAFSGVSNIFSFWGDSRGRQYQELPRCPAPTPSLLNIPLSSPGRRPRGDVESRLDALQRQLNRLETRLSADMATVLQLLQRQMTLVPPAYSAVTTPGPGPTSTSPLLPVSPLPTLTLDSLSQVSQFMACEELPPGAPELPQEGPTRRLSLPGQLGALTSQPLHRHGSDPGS

Cytochrome P450 2B6 = biological target: T1, Cytochrome P450 2B6 (Homo sapiens, UniProt P20813); assay: Inhibition of CYP2B6 (unknown origin); type: ADME
T1 sequence (P20813 whole entry): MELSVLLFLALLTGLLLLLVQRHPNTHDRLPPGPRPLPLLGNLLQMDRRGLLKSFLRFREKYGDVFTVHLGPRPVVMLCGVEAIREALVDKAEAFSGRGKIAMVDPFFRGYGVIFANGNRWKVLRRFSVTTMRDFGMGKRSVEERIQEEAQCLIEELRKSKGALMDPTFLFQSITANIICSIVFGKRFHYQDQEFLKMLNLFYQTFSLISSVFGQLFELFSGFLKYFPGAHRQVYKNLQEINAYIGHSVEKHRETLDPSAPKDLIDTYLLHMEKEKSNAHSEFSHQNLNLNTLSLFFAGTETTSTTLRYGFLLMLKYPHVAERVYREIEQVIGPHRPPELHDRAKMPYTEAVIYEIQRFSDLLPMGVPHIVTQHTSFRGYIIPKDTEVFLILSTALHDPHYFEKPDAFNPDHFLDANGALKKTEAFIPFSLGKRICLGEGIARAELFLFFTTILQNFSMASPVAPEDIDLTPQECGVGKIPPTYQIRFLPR

[5] = Thermodynamic solubility of the compound at pH 7.4; type: physicochemical; conditions: buffer, read-out: Therm_solubility
[6] = Efflux ratio of apparent permeability in human Caco-2 cells; type: ADME, cell-based
[7] = Clearance in CD-1 mouse at 0.5 mg/kg, po or 0.2 mg/kg, iv; type: ADME, organism-based; conditions: in vivo
Cytochrome P450 2C19 = Cytochrome P450 2C19 (Homo sapiens, UniProt P33261); assay: Inhibition of CYP2C19 (unknown origin); type: ADME
Chain of Cytochrome P450 2C19 (P33261 whole entry): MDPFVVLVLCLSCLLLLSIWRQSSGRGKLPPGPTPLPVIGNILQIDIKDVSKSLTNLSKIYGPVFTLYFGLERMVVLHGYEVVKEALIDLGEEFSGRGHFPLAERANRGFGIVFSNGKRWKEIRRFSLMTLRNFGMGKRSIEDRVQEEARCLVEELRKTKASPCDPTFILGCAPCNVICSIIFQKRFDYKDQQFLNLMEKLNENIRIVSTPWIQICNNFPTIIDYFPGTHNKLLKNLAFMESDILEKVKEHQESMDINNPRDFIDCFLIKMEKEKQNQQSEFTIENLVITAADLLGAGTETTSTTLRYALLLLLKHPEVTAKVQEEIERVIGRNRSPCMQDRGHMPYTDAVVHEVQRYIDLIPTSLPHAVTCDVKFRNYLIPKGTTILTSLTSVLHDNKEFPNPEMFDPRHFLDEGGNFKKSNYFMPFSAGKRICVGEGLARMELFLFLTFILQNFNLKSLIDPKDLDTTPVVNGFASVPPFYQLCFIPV

[8] = Intrinsic clearance in mouse liver microsomes; type: ADME, Microsome; conditions: read-out: CLH
[9] = Apparent permeability across apical to basal side in human Caco-2 cells; type: ADME, cell-based
[10] = Volume of distribution in CD-1 mouse at 0.5 mg/kg, po or 0.2 […], iv; type: ADME, organism-based; conditions: in vivo
[11] = Cmax in CD-1 mouse at 0.5 mg/kg, po; type: ADME, organism-based; set-up: route oral, dose 0.5 mg/kg; conditions: in vivo
[12] = Protein binding in mouse plasma assessed as unbound fraction; type: ADME, cell-free
[13] = Half life in CD-1 mouse at 0.5 mg/kg, po or 0.2 mg/kg, iv; type: ADME, organism-based; conditions: in vivo
Cytochrome P450 2D6 = Cytochrome P450 2D6 (Homo sapiens, UniProt P10635); assay: Inhibition of CYP2D6 (unknown origin); type: ADME
Chain of Cytochrome P450 2D6 (P10635 whole entry): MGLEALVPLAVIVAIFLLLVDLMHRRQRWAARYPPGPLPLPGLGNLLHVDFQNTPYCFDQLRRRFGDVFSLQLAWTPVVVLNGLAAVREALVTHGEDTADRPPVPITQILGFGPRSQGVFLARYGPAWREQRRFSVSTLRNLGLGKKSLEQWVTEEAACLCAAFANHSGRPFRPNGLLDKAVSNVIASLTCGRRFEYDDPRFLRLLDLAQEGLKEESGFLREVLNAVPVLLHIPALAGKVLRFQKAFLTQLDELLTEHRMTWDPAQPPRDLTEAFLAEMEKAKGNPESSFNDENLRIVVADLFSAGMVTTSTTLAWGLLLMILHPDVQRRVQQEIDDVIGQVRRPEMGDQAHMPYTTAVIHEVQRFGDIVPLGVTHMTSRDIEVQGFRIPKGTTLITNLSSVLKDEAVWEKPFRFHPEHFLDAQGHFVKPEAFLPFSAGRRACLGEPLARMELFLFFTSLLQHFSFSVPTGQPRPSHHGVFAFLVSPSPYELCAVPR

Cytochrome P450 2C9 = Cytochrome P450 2C9 (Homo sapiens, UniProt P11712); assay: Inhibition of CYP2C9 (unknown origin); type: ADME
Chain of Cytochrome P450 2C9 (P11712 whole entry): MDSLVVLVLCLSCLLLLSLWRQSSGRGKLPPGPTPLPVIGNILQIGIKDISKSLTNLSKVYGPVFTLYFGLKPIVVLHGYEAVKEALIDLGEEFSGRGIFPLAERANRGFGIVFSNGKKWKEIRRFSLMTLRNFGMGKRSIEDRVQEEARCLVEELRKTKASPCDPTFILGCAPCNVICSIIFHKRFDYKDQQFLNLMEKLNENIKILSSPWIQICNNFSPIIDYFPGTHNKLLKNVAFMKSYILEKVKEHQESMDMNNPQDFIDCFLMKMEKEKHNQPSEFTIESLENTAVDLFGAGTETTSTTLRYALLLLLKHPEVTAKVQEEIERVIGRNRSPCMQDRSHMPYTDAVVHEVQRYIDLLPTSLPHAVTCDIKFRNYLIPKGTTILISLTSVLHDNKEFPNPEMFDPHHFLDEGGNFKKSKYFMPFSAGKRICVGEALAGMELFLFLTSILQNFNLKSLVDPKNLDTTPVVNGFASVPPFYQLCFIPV

[14] = Intrinsic clearance in human liver microsomes; type: ADME, Microsome; conditions: read-out: CLH
[15] = AUC in CD-1 mouse at 0.5 mg/kg, po; type: ADME, organism-based; set-up: dose 0.5 mg/kg; conditions: in vivo
Cytochrome P450 3A4 = Cytochrome P450 3A4 (Homo sapiens, UniProt P08684); assay: Inhibition of CYP3A4 (unknown origin); type: ADME
Chain of Cytochrome P450 3A4 (P08684 whole entry): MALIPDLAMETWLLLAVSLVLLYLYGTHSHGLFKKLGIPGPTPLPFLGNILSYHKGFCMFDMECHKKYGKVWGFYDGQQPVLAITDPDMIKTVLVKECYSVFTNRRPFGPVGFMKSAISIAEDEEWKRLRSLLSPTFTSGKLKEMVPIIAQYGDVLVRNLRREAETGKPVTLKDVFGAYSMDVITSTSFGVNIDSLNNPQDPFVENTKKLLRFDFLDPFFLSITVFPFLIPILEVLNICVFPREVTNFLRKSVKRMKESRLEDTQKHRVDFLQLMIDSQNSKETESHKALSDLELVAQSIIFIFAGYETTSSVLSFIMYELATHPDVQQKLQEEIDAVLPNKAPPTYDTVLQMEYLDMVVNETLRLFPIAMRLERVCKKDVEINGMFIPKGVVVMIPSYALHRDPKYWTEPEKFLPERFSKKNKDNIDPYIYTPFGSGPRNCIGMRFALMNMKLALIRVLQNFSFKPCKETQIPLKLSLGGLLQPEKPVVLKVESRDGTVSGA

[16] = Protein binding in human plasma assessed as unbound fraction; type: ADME, cell-free
[17] = Oral bioavailability in CD-1 mouse at 0.5 mg/kg; type: ADME, organism-based; conditions: in vivo
[18] = Thermodynamic solubility of the compound at pH 1.2; type: physicochemical; conditions: buffer, read-out: Therm_solubility
Cytochrome P450 1A2 = biological target: T2, Cytochrome P450 1A2 (Homo sapiens, UniProt P05177); assay: Inhibition of CYP1A2 (unknown origin); type: ADME
T2 sequence (P05177 whole entry): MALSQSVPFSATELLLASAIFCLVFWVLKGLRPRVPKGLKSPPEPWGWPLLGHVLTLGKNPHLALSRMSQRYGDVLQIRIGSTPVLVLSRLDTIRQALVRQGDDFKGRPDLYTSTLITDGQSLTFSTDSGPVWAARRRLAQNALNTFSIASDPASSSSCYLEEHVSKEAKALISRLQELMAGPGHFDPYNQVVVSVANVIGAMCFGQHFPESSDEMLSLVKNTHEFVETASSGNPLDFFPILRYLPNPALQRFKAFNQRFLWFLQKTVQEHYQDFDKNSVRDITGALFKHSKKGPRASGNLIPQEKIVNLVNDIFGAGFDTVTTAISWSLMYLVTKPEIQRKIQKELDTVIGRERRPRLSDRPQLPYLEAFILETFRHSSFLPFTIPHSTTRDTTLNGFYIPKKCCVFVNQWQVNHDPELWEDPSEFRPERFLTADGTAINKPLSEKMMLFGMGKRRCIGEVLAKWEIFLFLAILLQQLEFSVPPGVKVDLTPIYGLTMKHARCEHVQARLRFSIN

[19] = AUC in CD-1 mouse at 0.2 mg/kg, iv; type: ADME, organism-based; set-up: dose 0.2 mg/kg; conditions: in vivo
Cytochrome P450 2C8 = biological target: T3, Cytochrome P450 2C8 (Homo sapiens, UniProt P10632); assay: Inhibition of CYP2C8 (unknown origin); type: ADME
T3 sequence (P10632 whole entry): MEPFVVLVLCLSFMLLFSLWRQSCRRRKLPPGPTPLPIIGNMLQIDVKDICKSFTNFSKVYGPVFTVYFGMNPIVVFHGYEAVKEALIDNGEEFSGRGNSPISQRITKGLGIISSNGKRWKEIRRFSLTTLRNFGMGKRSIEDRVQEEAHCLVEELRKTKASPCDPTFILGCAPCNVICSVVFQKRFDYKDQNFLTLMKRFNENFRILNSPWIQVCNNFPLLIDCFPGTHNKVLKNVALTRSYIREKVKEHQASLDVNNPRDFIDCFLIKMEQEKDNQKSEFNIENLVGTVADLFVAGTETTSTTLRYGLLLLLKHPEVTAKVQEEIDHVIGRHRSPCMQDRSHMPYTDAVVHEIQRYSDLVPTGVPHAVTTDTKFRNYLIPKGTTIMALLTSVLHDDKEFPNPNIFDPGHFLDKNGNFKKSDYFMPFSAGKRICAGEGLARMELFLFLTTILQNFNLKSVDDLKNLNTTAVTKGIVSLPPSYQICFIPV

[20] = Cmax in CD-1 mouse at 0.2 mg/kg, iv; type: ADME, organism-based; set-up: route intravenous, dose 0.2 mg/kg; conditions: in vivo

Structure (SMILES): CN(C)CCn1cc(-c2ccc(F)c(C(F)(F)F)c2)nc1C1CCN(c2ncnc(N)c2C2CC2)CC1
IC50 [1]: 3.2 nM
IC50 [3]: 4.8 nM
IC50 [4]: 830 nM

Structure (SMILES): CCc1c(N)ncnc1N1CCC(c2nc(-c3ccc(F)c(C(F)(F)F)c3)cn2CCN(C)C)CC1
IC50 [1]: 3.7 nM
IC50 [3]: 12 nM

Structure (SMILES): Cn1cc(-c2ccc(F)c(C(F)(F)F)c2)nc1C1CCN(c2ncnc(N)c2-c2cccc(F)c2)CC1
IC50 [1]: 1.6 nM
IC50 [2]: 400 nM
IC50 [3]: > 1000 nM

Structure (SMILES): CN(C)CCn1cc(-c2ccc(F)c(C(F)(F)F)c2)nc1C1CCN(c2ncnc(N)c2C#N)CC1
IC50 [1]: 1.8 nM
IC50 [2]: 55000 nM
IC50 [3]: 6.9 nM
IC50 [4]: 1600 nM

Structure (SMILES): Nc1ncnc(N2CCC(c3nc(-c4ccc(F)c(C(F)(F)F)c4)cn3CCN3CCCC3)CC2)c1-c1ccc(F)cc1
IC50 [1]: 8.2 nM
IC50 [3]: 140 nM
IC50 [4]: 1500 nM

Structure (SMILES): CC(C)c1c(N)ncnc1N1CCC(c2nc(-c3ccc(F)c(C(F)(F)F)c3)cn2CCN2CCC2)CC1
IC50 [1]: 3.5 nM
IC50 [2]: 78000 nM
IC50 [3]: 6.6 nM
IC50 [4]: 1800 nM

Structure (SMILES): Nc1ncnc(N2CCC(c3nc(-c4ccc(F)c(C(F)(F)F)c4)cn3CCN3CCC3)CC2)c1Cl
IC50 [1]: 0.6 nM
IC50 [2]: 64000 nM
IC50 [3]: 1 nM
IC50 [4]: 1900 nM

Structure (SMILES): Cn1cc(-c2ccc(F)c(C(F)(F)F)c2)nc1C1CCN(c2cc(N)ncn2)CC1
IC50 [1]: 102 nM
IC50 [2]: 22000 nM
IC50 [3]: > 1000 nM

Structure (SMILES): Cc1ncc(-c2c(N)ncnc2N2CCC(c3nc(-c4ccc(F)c(C(F)(F)F)c4)cn3C)CC2)s1
IC50 [1]: 2.1 nM
IC50 [2]: 600 nM
IC50 [3]: 850 nM

Structure (SMILES): CCc1c(N)ncnc1N1CCC(c2nc(-c3ccc(F)c(C(F)(F)F)c3)cn2CCN2CCC2)CC1
IC50 [1]: 2 nM
IC50 [2]: 49000 nM
IC50 [3]: 4 nM
IC50 [4]: 1600 nM

Structure (SMILES): Cn1cc(-c2ccc(F)c(C(F)(F)F)c2)nc1C1CCN(c2ncnc(N)c2-c2cncnc2)CC1
IC50 [1]: 2.3 nM
IC50 [2]: 700 nM
IC50 [3]: 880 nM

Now from value to compound, other results behind:

IC50 [1]: 6.3 nM
IC50 [2]: 2600 nM
IC50 [3]: > 1000 nM
Structure (SMILES): NCC(c1ccccc1)N1CCN(c2ncnc(N)c2-c2ccc(F)cc2)CC1 (stereo not given)

IC50 [1]: 2.4 nM
IC50 [3]: 23 nM
Structure (SMILES): Nc1ncnc(N2CCC(c3nc(-c4ccc(F)c(C(F)(F)F)c4)cn3CCN3CCC3)CC2)c1-c1ccc(F)cc1
IC50 [4]: 1300 nM

IC50 [1]: 4.4 nM
IC50 [2]: 1900 nM
IC50 [3]: > 1000 nM
Structure (SMILES): NCC(c1ccc(F)cc1)N1CCN(c2ncnc(N)c2-c2ccc(F)cc2)CC1 (stereo not given)

IC50 (Cytochrome P450 2B6): 6500 nM
solubility thermodynamic [5]: < 1 µg/mL
efflux ratio [6]: 1.3
CL [7]: 12.3 mL/min/kg
IC50 (Cytochrome P450 2C19): > 20000 nM
IC50 [1]: 4 nM
microsomal CLint [8]: 48 µL/min/mg
Papp A→B [9]: 1.9 ×10⁻⁶ cm/s
Vd [10]: 2.16 L/kg
Cmax [11]: 72.1 ng/mL
fraction unbound [12]: 0.0003
half-life [13]: 4.68 h
IC50 [2]: 40 nM
IC50 (Cytochrome P450 2D6): > 20000 nM
IC50 (Cytochrome P450 2C9): > 20000 nM
IC50 [3]: 2200 nM
microsomal CLint [14]: 23 µL/min/mg
AUC [15]: 557 ng·h/mL
IC50 (Cytochrome P450 3A4): > 20000 nM
fraction unbound [16]: 0.0008
F [17]: 41%
solubility thermodynamic [18]: < 1 µg/mL
IC50 (Cytochrome P450 1A2): > 20000 nM
AUC [19]: 1350 ng·h/mL
IC50 (Cytochrome P450 2C8): > 20000 nM
Cmax [20]: 597 ng/mL
Structure (SMILES): Cn1cc(-c2ccc(F)c(C(F)(F)F)c2)nc1C1CCN(c2ncnc(N)c2-c2ccc(F)cc2)CC1
IC50 [4]: 1800 nM

IC50 [1]: 4.9 nM
IC50 [2]: 1200 nM
IC50 [3]: > 1000 nM
Structure (SMILES): CN(C)CC(c1ccc(C(F)(F)F)cc1)N1CCN(c2ncnc(N)c2-c2ccc(F)cc2)CC1 (stereo not given)
